The text below walks through data of patent US8722661B2, “Pyrrolopyrimidone and pyrrolopyridone inhibitors of tankyrase” (Genentech, Inc., priority 2012, dated 2014).

Experiment [1] deals with T1, PARP1 (His6-PARP1, full length) (Homo sapiens, UniProt P09874).
T1 construct: His6-PARP1 (full length)
Briefly: μHTS-TNKS-IWR2 TR-FRET binding assay with His6-PARP1 in place of TNKS1. The settings on record: Table I. Here is the method:
(§1) μHTS-TNKS-IWR2TR-FRET Binding Assay
(§2) (10 μL/well in BD1536-well plate, a single point)
(§3) Alternatively, in place of His6-TNKS1 can use either His6-tankyrase 2 (construct: 934-1166) (His6-TNKS2) or His6-PARP1 (full length).
(§4) Biotin-IWR2: 10 mM Biotin-IWR2 stock in DMSO, stored at −20° C.
Positive control: 10 mM […] in DMSO, stored at −20° C.
(§5) Prepare Biotinylated IWR2 stock solution (3.33× stock) for TOTL and cpd wells: 200 nM Biotin-IWR2 in 5% DMSO/AB1b buffer
(§6) Prepare POSITIVE CONTROL well stock solution (3.33× stock): 200 nM XAV939 in 200 nM Biotin-IWR2/5% DMSO/AB1b buffer
(§7) (Alternatively, use TNKS2 or PARP1 stock solutions.)
(§8) Prepare Eu/APC stock solution (5× stock): 3.5 nM Eu-SA/50 nM APC-His6Ab in AB2 buffer
(§9) Add 25 μL/well 1.5% DMSO/AB1c buffer in each compound well to the compound concentration at 74 μM in 8.8% DMSO/AB1c buffer or in the 2 μL DMSO CONTROL wells (BLANK, TOTAL and POSITIVE wells) in the compound plate.
(§10) Transfer 3 μL/well above solution (solution 1,2,3) to an empty assay plate (BD1536-well plate) as follows:
(§11) Transfer 3 μL/well of the above diluted compound solutions or compound dilution buffer to the above assay plate.
(§12) Add 2 μL/well of 300 nM TNKS stock solution (4) to every well in the above assay plate.
(§13) Incubate the assay plate at 26° C. for 30 minutes.
(§14) Incubate the assay plate at 26° C. for 60 minutes.
(§15) Read the assay plate immediately at excitation wavelength of 330 nm and emission wavelength of […] in time resolved fluorescence mode.
(§16) Representative compound data for assays are listed below in Table I. Values are in uM.

For another experiment, the target named is T2, Tankyrase 1 (TNKS1) (Homo sapiens, UniProt O95271).
T2 construct: construct: 1088-1327, 1266M
Briefly: μHTS-TNKS-IWR2 TR-FRET binding assay (TNKS1). Here is the method:
as §1, §2
Reagents and Stock Solutions
as §4
Assay buffer 1a (AB 1a) for TNKS dilution: 50 mM Tris, pH 7.4, 100 mM sodium chloride solution, 1 mM magnesium chloride solution, 1 mM DL-dithiothreitol solution, 0.2 mg/mL bovine serum albumin solution, 0.025% NP-40.
Assay buffer 1b (AB 1b) for Biotin-IWR2 dilution: 50 mM Tris, pH 7.4, 100 mM sodium chloride solution, 1 mM magnesium chloride solution, 1 mM DL-dithiothreitol solution, 0.2 mg/mL bovine serum albumin solution, 0.05% NP-40
Assay buffer 1c (AB 1c) for compound dilution: 50 mM Tris, pH 7.4, 100 mM sodium chloride solution, 1 mM magnesium chloride solution, 1 mM DL-dithiothreitol solution, 0.2 mg/mL bovine serum albumin solution
Assay buffer 2 (AB2) for Eu/APC: 50 mM Tris, pH 7.4, 100 mM sodium chloride solution, 1 mM magnesium chloride solution, 0.2 mg/mL bovine serum albumin solution
Reagent Stock Solution Preparation
Prepare BLANK well stock solution: 5% DMSO/AB1b buffer
Prepare TNKS1 stock solution (5× stock): 300 nM TNKS in AB1a buffer
as §10
TOTL and cpd wells: Solution 1 (Biotin-IWR2):
BLNK wells: Solution 2 (No Biotin-IWR2):
POSITIVE CONTROL wells: Solution 3 (Biotin-IWR2+XAV939)
as §11, §12
Centrifuge the assay plate at 2100 rpm for 2 minutes.
as §13, §14

Another experiment addresses T3, tankyrase 2 (His6-TNKS2) (Homo sapiens, UniProt Q9H2K2).
T3 construct: His6-tankyrase 2 (construct: 934-1166)
Briefly: μHTS-TNKS-IWR2 TR-FRET binding assay with His6-TNKS2 in place of TNKS1. As to conditions: Table I. Here is the method: as §1, §2, §3, §4
Positive control: 10 mM XAV 939 in DMSO, stored at −20° C.
as §5, §6, §7, §8, §9, §10, §11, §12, §13, §14, §15, §16
On the technique in general: In TR-FRET formats the signal depends on donor and acceptor labels being close together.

T1 sequence (P09874 whole entry): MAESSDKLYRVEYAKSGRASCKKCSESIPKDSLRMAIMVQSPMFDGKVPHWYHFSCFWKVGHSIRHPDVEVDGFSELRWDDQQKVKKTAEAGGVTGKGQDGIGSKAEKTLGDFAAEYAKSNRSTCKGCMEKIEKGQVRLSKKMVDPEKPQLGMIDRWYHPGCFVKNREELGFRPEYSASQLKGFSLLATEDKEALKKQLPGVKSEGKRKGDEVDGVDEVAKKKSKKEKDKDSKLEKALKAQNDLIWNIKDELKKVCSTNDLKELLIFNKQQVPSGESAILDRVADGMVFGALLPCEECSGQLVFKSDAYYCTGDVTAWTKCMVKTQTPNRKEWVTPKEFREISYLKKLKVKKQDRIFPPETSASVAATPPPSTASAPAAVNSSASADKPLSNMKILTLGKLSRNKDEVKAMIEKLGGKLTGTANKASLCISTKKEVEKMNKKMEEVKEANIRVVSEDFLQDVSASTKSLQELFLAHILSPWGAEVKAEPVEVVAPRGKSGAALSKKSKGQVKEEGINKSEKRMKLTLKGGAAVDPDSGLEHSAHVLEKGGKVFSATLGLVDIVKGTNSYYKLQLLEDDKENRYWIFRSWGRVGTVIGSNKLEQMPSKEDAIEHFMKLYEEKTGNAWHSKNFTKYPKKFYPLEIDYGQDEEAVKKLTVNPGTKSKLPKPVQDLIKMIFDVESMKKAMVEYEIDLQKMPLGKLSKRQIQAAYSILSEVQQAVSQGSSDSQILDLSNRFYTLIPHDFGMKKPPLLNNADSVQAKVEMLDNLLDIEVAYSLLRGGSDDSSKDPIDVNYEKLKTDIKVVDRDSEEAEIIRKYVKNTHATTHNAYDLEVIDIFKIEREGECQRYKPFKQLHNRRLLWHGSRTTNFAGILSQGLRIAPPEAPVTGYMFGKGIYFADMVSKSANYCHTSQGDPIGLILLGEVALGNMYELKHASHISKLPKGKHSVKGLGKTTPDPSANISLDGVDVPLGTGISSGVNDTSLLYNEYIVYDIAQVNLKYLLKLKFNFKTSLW
T3 sequence (Q9H2K2 934-1166): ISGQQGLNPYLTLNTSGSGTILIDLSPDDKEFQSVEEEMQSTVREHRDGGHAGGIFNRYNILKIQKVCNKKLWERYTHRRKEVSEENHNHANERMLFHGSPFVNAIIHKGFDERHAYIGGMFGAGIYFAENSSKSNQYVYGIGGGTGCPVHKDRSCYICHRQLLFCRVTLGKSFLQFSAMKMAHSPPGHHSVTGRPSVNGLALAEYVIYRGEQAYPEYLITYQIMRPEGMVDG
T2 sequence (O95271 1088-1327): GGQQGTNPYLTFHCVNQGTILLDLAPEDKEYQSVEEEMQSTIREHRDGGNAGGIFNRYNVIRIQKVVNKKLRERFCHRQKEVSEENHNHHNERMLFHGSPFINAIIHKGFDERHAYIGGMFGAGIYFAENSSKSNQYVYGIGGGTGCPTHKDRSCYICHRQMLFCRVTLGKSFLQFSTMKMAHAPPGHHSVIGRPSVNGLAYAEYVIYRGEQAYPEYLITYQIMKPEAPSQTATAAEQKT

In the case of `Cn1ccc2c(=O)[nH]c(N3CCN(c4ccccc4C(F)(F)F)CC3)nc21` [Example 23, 7-Methyl-2-[4-(2-trifluoromethyl-phenyl)-piperazin-1-yl]-3,7-dihydro-pyrrolo[2,3-d]pyrimidin-4-one], the concentration for half-maximal inhibition (IC50) (in general, the concentration at which inhibition is half-maximal) came to 42100 nM in experiment [1], 28 nM at Tankyrase 1 (TNKS1) and 31 nM on tankyrase 2 (His6-TNKS2).

Turning to `Cn1ccc2c(=O)[nH]c(N3CCN(c4ccc(S(C)(=O)=O)cc4F)CC3)nc21` [Example 24, 2-[4-(2-Fluoro-4-methanesulfonyl-phenyl)-piperazin-1-yl]-7-methyl-3,7-dihydro-pyrrolo[2,3-d]pyrimidin-4-one], the IC50 came out at 1280 nM in experiment [1], 35 nM at Tankyrase 1 (TNKS1) and 47 nM at tankyrase 2 (His6-TNKS2).

Regarding `Cn1ccc2c(=O)[nH]c(N3CCN(c4cc(C(F)(F)F)ccn4)CC3)nc21` [Example 25, 7-Methyl-2-[4-(4-trifluoromethyl-pyridin-2-yl)-piperazin-1-yl]-3,7-dihydro-pyrrolo[2,3-d]pyrimidin-4-one], the IC50 amounted to 557 nM in experiment [1], 292 nM on Tankyrase 1 (TNKS1) and 200 nM at tankyrase 2 (His6-TNKS2).

As for `Cn1ccc2c(=O)[nH]c(N3CCN(c4ccc(Cl)c(Cl)c4)CC3)nc21` [Example 26, 2-[4-(3,4-Dichloro-phenyl)-piperazin-1-yl]-7-methyl-3,7-dihydro-pyrrolo[2,3-d]pyrimidin-4-one], the IC50 in experiment [1] was 1250 nM; at Tankyrase 1 (TNKS1), 204 nM; at tankyrase 2 (His6-TNKS2) it was 153 nM.

As for `C=CCCn1ccc2c(=O)[nH]c(N3CCN(c4ccccc4Cl)CC3)nc21` [Example 27, 7-But-3-enyl-2-[4-(2-chloro-phenyl)-piperazin-1-yl]-3,7-dihydro-pyrrolo[2,3-d]pyrimidin-4-one], the IC50 in experiment [1] is above 50000 nM; on Tankyrase 1 (TNKS1) it was 5670 nM; on tankyrase 2 (His6-TNKS2) it was 6790 nM.

With `Cn1ccc2c(=O)[nH]c(N3CCN(c4ccccc4F)CC3)nc21` [Example 28, 2-[4-(2-Fluoro-phenyl)-piperazin-1-yl]-7-methyl-3,7-dihydro-pyrrolo[2,3-d]pyrimidin-4-one], the figures for the IC50 (in experiment [1]; at Tankyrase 1 (TNKS1); at tankyrase 2 (His6-TNKS2)) were 3280 nM, 40 nM and 80 nM, respectively.

For `Cn1ccc2c(=O)[nH]c(N3CCN(c4ccccc4)CC3)nc21` [Example 29, 7-Methyl-2-(4-phenyl-piperazin-1-yl)-3,7-dihydro-pyrrolo[2,3-d]pyrimidin-4-one], the results for the IC50 (in experiment [1]; on Tankyrase 1 (TNKS1); at tankyrase 2 (His6-TNKS2)) were 732 nM, 43 nM and 45 nM, respectively.

For `Cn1ccc2c(=O)[nH]c(N3CCN(c4ccccc4Cl)CC3)nc21` [Example 30, 2-[4-(2-Chloro-phenyl)-piperazin-1-yl]-7-methyl-3,7-dihydro-pyrrolo[2,3-d]pyrimidin-4-one], the figures for the IC50 (in experiment [1]; at Tankyrase 1 (TNKS1); on tankyrase 2 (His6-TNKS2)) were 1400 nM, 31 nM and 33 nM, respectively.

As for `Cn1ccc2c(=O)[nH]c(N3CCN(c4cnccn4)CC3)nc21` [Example 31, 7-Methyl-2-(2,3,5,6-tetrahydro-[1,2′]bipyrazinyl-4-yl)-3,7-dihydro-pyrrolo[2,3-d]pyrimidin-4-one], the IC50 in experiment [1] is 318 nM; on Tankyrase 1 (TNKS1) it was 155 nM; at tankyrase 2 (His6-TNKS2), 133 nM.

On to `Cn1ccc2c(=O)[nH]c(N3CCN(c4ccc(C#N)cn4)CC3)nc21` [Example 32, 6-[4-(7-Methyl-4-oxo-4,7-dihydro-3H-pyrrolo[2,3-d]pyrimidin-2-yl)-piperazin-1-yl]-nicotinonitrile], for which the IC50 in experiment [1] came to 229 nM; at Tankyrase 1 (TNKS1), 129 nM; at tankyrase 2 (His6-TNKS2), 90 nM.

On to `Cn1ccc2c(=O)[nH]c(N3C[C@@H]4C[C@H]3CN4c3cccc(F)c3)nc21` [Example 33, 2-[(1S,4S)-5-(3-Fluoro-phenyl)-2,5-diaza-bicyclo[2.2.1]hept-2-yl]-7-methyl-3,7-dihydro-pyrrolo[2,3-d]pyrimidin-4-one], for which the half-maximal inhibitory concentration (IC50) in experiment [1] is 1120 nM; at Tankyrase 1 (TNKS1), 6180 nM; on tankyrase 2 (His6-TNKS2), 6080 nM.

`Cn1ccc2c(=O)[nH]c(N3CCN(c4c(Cl)cncc4Cl)CC3)nc21` [Example 34, 2-[4-(3,5-Dichloro-pyridin-4-yl)-piperazin-1-yl]-7-methyl-3,7-dihydro-pyrrolo[2,3-d]pyrimidin-4-one]: the results for the IC50 (in experiment [1]; on Tankyrase 1 (TNKS1); on tankyrase 2 (His6-TNKS2)) were 1370 nM, 25 nM and 24 nM, respectively.

As for `Cn1ccc2c(=O)[nH]c(N3CCN(c4ccccc4F)CC3)cc21` [Example 35, 6-[4-(2-Fluoro-phenyl)-piperazin-1-yl]-1-methyl-1,5-dihydro-pyrrolo[3,2-c]pyridin-4-one], the results for the IC50 (in experiment [1]; on Tankyrase 1 (TNKS1); on tankyrase 2 (His6-TNKS2)) were 1630 nM, 51 nM and 59 nM, respectively.

With `CCn1ccc2c(=O)[nH]c(N3CCN(c4ccccc4F)CC3)cc21` [Example 36, 1-Ethyl-6-[4-(2-fluoro-phenyl)-piperazin-1-yl]-1,5-dihydro-pyrrolo[3,2-c]pyridin-4-one], the half-inhibitory concentration (IC50) in experiment [1] turned out to be 21000 nM; on Tankyrase 1 (TNKS1), 273 nM; on tankyrase 2 (His6-TNKS2), 251 nM.

As for `O=c1[nH]c(-c2ccc(C(F)(F)F)cc2)nc2[nH]ccc12` [Example 37, 2-(4-Trifluoromethyl-phenyl)-3,7-dihydro-pyrrolo[2,3-d]pyrimidin-4-one], the IC50 in experiment [1] came out at 1130 nM; at Tankyrase 1 (TNKS1) it was 110 nM; at tankyrase 2 (His6-TNKS2) it was 217 nM.

Take `Cn1ccc2c(=O)[nH]c(-c3ccc(C(F)(F)F)cc3)nc21` [Example 38, 7-Methyl-2-(4-trifluoromethyl-phenyl)-3,7-dihydro-pyrrolo[2,3-d]pyrimidin-4-one]: the half-maximal inhibitory concentration (IC50) was found to be 785 nM in experiment [1], 38 nM at Tankyrase 1 (TNKS1) and 45 nM at tankyrase 2 (His6-TNKS2).

As to `COc1ccc(-c2nc3c(ccn3C)c(=O)[nH]2)cc1` [Example 39, 2-(4-Methoxy-phenyl)-7-methyl-3,7-dihydro-pyrrolo[2,3-d]pyrimidin-4-one], the IC50 in experiment [1] was found to be 854 nM; at Tankyrase 1 (TNKS1), 54 nM; on tankyrase 2 (His6-TNKS2), 58 nM.

As to `CCOc1ccc(-c2nc3c(ccn3C)c(=O)[nH]2)cn1` [Example 40, 2-(6-Ethoxy-pyridin-3-yl)-7-methyl-3,7-dihydro-pyrrolo[2,3-d]pyrimidin-4-one], the IC50 in experiment [1] is 289 nM; on Tankyrase 1 (TNKS1), 117 nM; at tankyrase 2 (His6-TNKS2) it was 109 nM.

Turning to `Cn1ccc2c(=O)[nH]c(-c3cccnc3)nc21` [Example 41, 7-Methyl-2-pyridin-3-yl-3,7-dihydro-pyrrolo[2,3-d]pyrimidin-4-one], the IC50 in experiment [1] was found to be 307 nM; at Tankyrase 1 (TNKS1) it was 764 nM; at tankyrase 2 (His6-TNKS2) it was 568 nM.

Take `Cc1ccc(-c2nc3c(ccn3C)c(=O)[nH]2)cn1` [Example 42, 7-Methyl-2-(6-methyl-pyridin-3-yl)-3,7-dihydro-pyrrolo[2,3-d]pyrimidin-4-one]: the IC50 in experiment [1] was 166 nM; at Tankyrase 1 (TNKS1), 228 nM; at tankyrase 2 (His6-TNKS2) it was 235 nM.

Regarding `Cn1ccc2c(=O)[nH]c(-c3ccc(C#N)cc3)nc21` [Example 43, 4-(7-Methyl-4-oxo-4,7-dihydro-3H-pyrrolo[2,3-d]pyrimidin-2-yl)-benzonitrile], the IC50 in experiment [1] is 1180 nM; on Tankyrase 1 (TNKS1) it was 110 nM; at tankyrase 2 (His6-TNKS2) it was 143 nM.

Consider `Cn1ccc2c(=O)[nH]c(-c3ccc(C(F)(F)F)nc3)nc21` [Example 44, 7-Methyl-2-(6-trifluoromethyl-pyridin-3-yl)-3,7-dihydro-pyrrolo[2,3-d]pyrimidin-4-one], for which the IC50 stood at 93.3 nM in experiment [1], 88 nM on Tankyrase 1 (TNKS1) and 84 nM on tankyrase 2 (His6-TNKS2).
